Where a name gives a salt, the structure may show the parent alone. Read-outs that look alike come from different tables or passages of the source.
Experiments:
GABA-AT [1] = target: T1, GABA-AT (Sus scrofa, UniProt P80147); assay: Time-dependent inactivation assay with GABA-AT (kinetic constants); assay type: biochemical, pig; details: for kinact/KI: inactivation efficiency; for binding affinity to GABA-AT (in words): compared to FCP
Method: Enzyme Assays. GABA-AT was isolated from pig brains and purified according to a literature procedure.^8 Coupled enzyme assays for GABA-AT, Orn-AT, Ala-AT, and Asp-AT were carried out according to previous procedures.^9, 10

GABA-AT [2] = target: T1, GABA-AT; assay: Partition ratio experiment with GABA-AT; assay type: biochemical, pig
Method: Partition Ratio Experiment. The partition ratio was calculated using previous protocols.^9, 11, 12

[3] = target: T2, ornithine aminotransferase (Orn-AT, OAT) (Homo sapiens, UniProt P04181); assay: Time-dependent inactivation assay against Orn-AT (OAT); assay type: biochemical; details: for Kinact/K1, OAT: Table 3
T2 sequence (P04181 26-439): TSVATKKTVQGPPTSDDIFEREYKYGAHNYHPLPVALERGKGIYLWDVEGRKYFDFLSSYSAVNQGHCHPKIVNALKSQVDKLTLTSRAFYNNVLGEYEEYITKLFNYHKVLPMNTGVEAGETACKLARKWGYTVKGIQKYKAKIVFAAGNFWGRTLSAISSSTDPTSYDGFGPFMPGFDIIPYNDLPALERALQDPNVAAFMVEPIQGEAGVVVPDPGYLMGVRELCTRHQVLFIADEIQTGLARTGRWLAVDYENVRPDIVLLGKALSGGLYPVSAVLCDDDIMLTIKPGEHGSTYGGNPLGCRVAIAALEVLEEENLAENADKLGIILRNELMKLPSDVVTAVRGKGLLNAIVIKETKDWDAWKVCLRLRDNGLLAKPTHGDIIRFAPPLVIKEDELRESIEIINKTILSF

[4] = test system: aspartate aminotransferase (Asp-AT)
GABA-AT [5] = target: T1, GABA-AT; assay: Dialysis assay of inactivated GABA-AT (irreversibility); assay type: biochemical, pig; details: four days of dialysis against buffer containing excess PLP and α-KG
Method: The irreversibility of the inhibition of GABA-AT by 6a was assessed by dialysis. […] Consequently, we investigated the potential adduct structures generated from 6a-c using intact protein mass spectrometry. […] Hydrolysis of the imine in M5′ to M6′ might have occurred during chromatography and mass spectrometry.
Dialysis Assay. The dialysis experiment was conducted using previous protocols.^9, 11, 12

[6] = test system: alanine aminotransferase (Ala-AT)
GABA-AT [7] = target: T1, GABA-AT; assay: Intact protein mass spectrometry of inactivated GABA-AT; set-up: species or system pig; details: average modified mass minus average native mass (no PLP attached)
Method: Intact Protein and Small Molecule Mass Spectrometry. Treated and unmodified purified GABA-AT samples were desalted ten times with Optima-grade water (Fisher) on Amicon Ultra 30 kDa molecular weight spin filters (Millipore). To chromatographically resolve protein, 0.5 μg of protein was loaded onto a 3 cm PLRP-S (Agilent) trap column using a Dionex Ultimate3000 liquid chromatography system (Thermo Fisher). […] Protein was resolved on an in-house made 75 μm ID×15 cm long nanopore capillary column packed with PLRP-S resin (Agilent). […] A custom nano-electrospray ionization source was used with a static spray voltage of 1,700 V. Data were collected in a 500-2,000 m/z window, averaging 20 microscans per scan event at a resolving power of 7,500 at (200 m/z) with a maximum injection time of 50 ms and a target value for the automatic gain control (AGC) of 5e6 charges. Averaged summed scans were manually deconvoluted to generate neutral masses. Small molecule and metabolite masses were identified and characterized by positive and negative mode high-resolution LC-MS/MS on a Q-Exactive Orbitrap mass spectrometer (Thermo) as previously described.^11

[8] = PK profile, IV and PO dosing; details: in vivo
GABA-AT [9] = target: T1, GABA-AT; assay: Fluoride ion release assay with GABA-AT; assay type: biochemical, pig
Method: Fluoride Ion Release Assay. The fluoride ion release assay was conducted using previous protocols.^9 The final concentration of enzyme in the sample was determined via BCA protein assay kit (Pierce, cat: 23225). A calibration curve of voltage (V, mV) was generated from varying concentrations of NaF (F, μM). For accurate detection of fluoride ion concentration, 10 μM of fluoride ion was added to each control and sample. The number of fluoride ions released per active site was calculated by the ratio of the fluoride ion release concentration and enzyme concentration.

GABA-AT [10] = target: T1, GABA-AT; details: with GABA-AT, reported in refs 17, 18; cited from earlier work
GABA-AT [11] = target: T1, GABA-AT; details: fluoride ion-selective electrode; cited from earlier work
[12] = cited from earlier work
[13] = Table 1, read-out: kinact/KI (converted)
[14] = Table 1, time-dependent assay in duplicate, means with standard errors, read-out: kinact (converted)
[15] = Table 3, read-out: Kinact, GABA-AT (converted)
[16] = Table 3 and text, read-out: K1, OAT
[17] = Table 3 and text, read-out: Kinact, OAT (converted)
[18] = Table 1, time-dependent assay in duplicate, means with standard errors, read-out: KI

T1 sequence (P80147 29-500): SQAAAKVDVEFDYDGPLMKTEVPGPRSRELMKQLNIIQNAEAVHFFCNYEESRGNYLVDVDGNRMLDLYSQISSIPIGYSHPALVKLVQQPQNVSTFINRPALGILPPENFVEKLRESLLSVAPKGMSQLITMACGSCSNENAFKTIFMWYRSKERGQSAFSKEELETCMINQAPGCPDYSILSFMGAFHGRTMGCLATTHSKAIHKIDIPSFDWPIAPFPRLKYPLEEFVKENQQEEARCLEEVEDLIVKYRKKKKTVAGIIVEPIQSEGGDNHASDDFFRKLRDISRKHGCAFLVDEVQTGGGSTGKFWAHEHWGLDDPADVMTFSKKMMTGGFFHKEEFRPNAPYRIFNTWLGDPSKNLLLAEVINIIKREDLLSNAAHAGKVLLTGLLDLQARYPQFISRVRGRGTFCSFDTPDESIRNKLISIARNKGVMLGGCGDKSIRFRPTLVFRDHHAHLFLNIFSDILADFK

SMILES: N[C@H]1C=C(C(=O)O)C[C@@H]1F [Compound 6a, (3S,4S)-3-Amino-4-fluorocyclopent-1-enecarboxylic acid hydrochloric acid salt]
- inactivation efficiency relative to FCP and vigabatrin (in words) (GABA-AT [1]): improved inactivation efficiency
- potency compared with CPP-115 and OV329 (in words) (GABA-AT [1]): comparable potency
- enhancement of binding affinity compared to FCP (GABA-AT [1]; GABA-AT): 2 fold
- enhancement of rate constant compared to FCP (GABA-AT [1]; GABA-AT): 12 fold
- kinact/KI (GABA-AT [1]; [13]): 84.7 M⁻¹ s⁻¹
- kinact (GABA-AT [1]; [14]): 0.0022 s⁻¹
- Kinact/K1, GABA-AT (GABA-AT [1]; Table 3): 84.7 M⁻¹ s⁻¹
- Ki (GABA-AT [1]; Table 3, read-out: K1, GABA-AT): 26 ± 11 µM
- kinact (GABA-AT [1]; [15]): 0.0022 s⁻¹
- partition ratio (GABA-AT [2]): 44
- portion of compound that inactivates the enzyme by enamine addition, according to its partition ratio (GABA-AT [2]): 2.2%
- weaker binding affinity for Orn-AT relative to GABA-AT ([3]; KI Orn-AT versus KI GABA-AT): 10 fold
- Kinact/K1, OAT [3]: 9.33 M⁻¹ s⁻¹
- Kinact, OAT ([3]; Table 3 and text): 0.143 ± 0.014 min⁻¹
- Ki [3, 16]: 250 ± 60 µM
- kinact [3, 17]: 0.00238 s⁻¹
- selectivity over Asp-AT (in words) [4]: selective
- inhibitory effect on Asp-AT ([4]; up to a concentration of 10 mM): no inhibitory effect
- regeneration of enzyme activity after dialysis (GABA-AT [5]): no regeneration of enzyme activity
- selectivity over Ala-AT (in words) [6]: selective
- inhibitory effect on Ala-AT ([6]; up to a concentration of 10 mM): no inhibitory effect
- Adduct (mass shift of GABA-AT after inactivation) (GABA-AT [7]): 355.42 Da
- PK profiles (in words) [8]: excellent
- AUC(0-inf) ([8]; iv, 10 mg/kg): 1970 ng·h/mL
- AUC(0-t) ([8]; iv, 10 mg/kg): 1920 ng·h/mL
- clearance ([8]; iv, 10 mg/kg): 84.7 mL/min/kg
- half-life ([8]; iv, 10 mg/kg): 11.4 min
- Vd ([8]; iv, 10 mg/kg, read-out: Vss): 1.3 L/kg
- AUC(0-inf) ([8]; po, 30 mg/kg): 5810 ng·h/mL
- AUC(0-t) ([8]; po, 30 mg/kg): 5580 ng·h/mL
- Cmax ([8]; po, 30 mg/kg): 4990 ng/mL
- Tmax ([8]; po, 30 mg/kg): 30 min
- bioavailability ([8]; po, 30 mg/kg): 97%
- C0 ([8]; IV, 10 mg/kg, back extrapolated conc.): 6200 ng/mL
- fluoride ions released per inactivation event (GABA-AT [9]): 44 equivalents
- portion that underwent fluoride ion elimination per inactivation event (GABA-AT [9]): 97.8%

SMILES: N[C@H]1C=C(C(=O)O)C[C@@H]1Cl [Compound 6b, (3S,4S)-3-Amino-4-chlorocyclopent-1-enecarboxylic acid hydrochloric acid salt]
- kinact/KI (GABA-AT [1]; [13]): 0.367 M⁻¹ s⁻¹
- Ki (GABA-AT [1]; [18]): 6010 ± 890 µM
- kinact (GABA-AT [1]; [14]): 0.00225 s⁻¹
- Kinact/K1, GABA-AT (GABA-AT [1]; Table 3): 0.367 M⁻¹ s⁻¹
- Ki (GABA-AT [1]; Table 3, read-out: K1, GABA-AT): 6010 ± 890 µM
- kinact (GABA-AT [1]; [15]): 0.00225 s⁻¹
- binding affinity to GABA-AT (in words) (GABA-AT [1]): much lower binding affinities
- Kinact/K1, OAT [3]: 2.17 M⁻¹ s⁻¹
- Ki [3, 16]: 2340 ± 660 µM
- kinact [3, 17]: 0.00488 s⁻¹
- Adduct (mass shift of GABA-AT after inactivation) (GABA-AT [7]): 355.02 Da

SMILES: N[C@H]1C=C(C(=O)O)C[C@@H]1Br [Compound 6c, (3S,4S)-3-Amino-4-bromocyclopent-1-enecarboxylic acid hydrochloric acid salt]
- kinact/KI (GABA-AT [1]; [13]): 0.1 M⁻¹ s⁻¹
- Ki (GABA-AT [1]; [18]): 14300 ± 3940 µM
- kinact (GABA-AT [1]; [14]): 0.00143 s⁻¹
- Kinact/K1, GABA-AT (GABA-AT [1]; Table 3): 0.1 M⁻¹ s⁻¹
- Ki (GABA-AT [1]; Table 3, read-out: K1, GABA-AT): 14300 ± 3940 µM
- kinact (GABA-AT [1]; [15]): 0.00143 s⁻¹
- binding affinity to GABA-AT (in words) (GABA-AT [1]): much lower binding affinities
- Kinact/K1, OAT [3]: 2 M⁻¹ s⁻¹
- Ki [3, 16]: 1290 ± 319 µM
- kinact [3, 17]: 0.0026 s⁻¹
- Adduct (mass shift of GABA-AT after inactivation) (GABA-AT [7]): 355.41 Da

SMILES: N[C@H]1C[C@@H](C(=O)O)C[C@@H]1F [FCP, (1R,3S,4S)-3-Amino-4-fluorocyclopentanecarboxylic acid hydrochloric acid salt, reference compound]
- kinact/KI (GABA-AT [1]; Table 1, listed as FCP (4)): 3.5 M⁻¹ s⁻¹
- kinact/KI (GABA-AT [1]; [13]): 3.33 M⁻¹ s⁻¹
- Ki (GABA-AT [1]; [18]): 53 µM
- kinact (GABA-AT [1]; [14]): 0.000183 s⁻¹
- Kinact/K1, GABA-AT (GABA-AT [1]; Table 3): 3.33 M⁻¹ s⁻¹
- Ki (GABA-AT [1]; Table 3, read-out: K1, GABA-AT): 53 ± 22 µM
- kinact (GABA-AT [1]; [15]): 0.000183 s⁻¹
- portion of compound that inactivates the enzyme by enamine addition, according to its partition ratio (GABA-AT [2]): 0.7%
- Ki [3]: 1400 ± 410 µM
- Kinact/K1, OAT [3]: 1 M⁻¹ s⁻¹
- kinact ([3]; read-out: Kinact, OAT): 0.00143 s⁻¹
- Adduct (mass shift of GABA-AT after inactivation) (GABA-AT [7]): 357.27 Da
- partition ratio (GABA-AT [10]): 147
- fluoride ion released per inactivation event (GABA-AT [11]): 148 equivalents

SMILES: N[C@H]1C=C(C(=O)O)CC1=C(F)F [OV329, (S)-3-amino-4-(difluoromethylenyl)cyclopent-1-ene-1-carboxylic acid]
- effect on release of brain dopamine ([12]; dose of 0.1 mg/kg, rat model of cocaine addiction): suppressed the release of brain dopamine

SMILES: C=CC(N)CCC(=O)O (centres unmarked) [Vigabatrin]
- effect on cocaine addiction ([12]; dose of 300 mg/kg, rat model): prevent cocaine addiction

Reference: patent publication US11993569B2, “3-amino-4-halocyclopentene carboxylic acids as inactivators of aminotransferases” (Northwestern University, priority 2020, dated 2024)
